Read-outs that look alike come from different tables or passages of the source.
Legend:
ER/IL-6 = test: Endothelial Cell ER/IL-6 Assay, IL-6 promoter luciferase (Table 2); type: cell-based, human; details: ERα infected HAECT-1 cells, IL-1β; for Emax: read-out: IL6 luc % Efficacy; for IC50: read-out: IL6 luc IC50
Procedure, shortened: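 HAECT-1 human aortic endothelial cells adenovirally expressing human ERα (or non-ER-infected controls) received compounds as 2× stocks with 2 ng/ml IL-1β and IL-6 promoter (1250 bp)-luciferase adenovirus for […] at 34 °C. ER/IL-6 was read as lysate luciferase and CK as the rate of A340 increase with CK reagent. IC50/EC50 came from four-parameter logistic fits.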

CK = test: Creatine kinase assay in ERα infected HAECT-1 cells (Table 2); type: cell-based, human; details: for Emax: HAECT1, read-out: CK % Efficacy
Protocol: T-175 flasks of 100% confluent HAECT-1 cells (immortalized human aortic endothelial cells) were washed with 8 ml of HBSS (HEPES buffered saline solution) and infected for fours hours with 6 ml of a 1:10 dilution of Ad5-wt-hERα virus (an adenovirus transfection vector that mediates CMV promoter driven expression of human ERα) in phenol red free Endothelial Cell Basal medium (Clonetics, San Diego, Calif., Catalog # CC-3129) containing 0.25% bovine serum albumin (EDM-BSA). After four hours, cells were washed with EDM-BSA and incubated overnight in the same medium. Following overnight incubation, cells were washed with EDM-BSA and infected for 2 hours with 6 ml of a 1:10 dilution of Ad5-3x(NFκB).Luc virus (Adenovirus luciferase expression vector driven by three repeats of the MHC NFκb sites 5′ to the thymidine kinase promoter) in EDM-BSA. After two hours, cells were washed and incubated at 34° C. for one hour. Cells were then washed, trypsinized, counted, and resuspended in 95% FBS/5% dimethylsulfoxide at a concentration of […], frozen as 1 or 5 ml aliquots in cryo-vials and stored at −150° C. Control (no ER infection) cells were processed as above without Ad5-wt-hERα virus infection.
ERα infected HAECT-1 cells or control cells were thawed, diluted 42× in warm EBM-BSA, plated into 96-well plates at 0.1 ml/well and incubated for 4 hours at 34° C. Test compounds were added to the cells at 2× stocks in EBM-BSA containing 2 ng/ml IL-1β Ad6-IL-6(1250 bp).Luc virus and plates were returned to the incubator (34° C.). After […], cells were lysed with 50 μl of Promega Cell Culture Lysis reagenet for about 5 minutes at room temperature on a shaker. After lysing, 15 μl of lysate is transferred to luminometer plates for luciferase determination. Luciferase activity is evaluated using a Perkin Elmer Victor2 1420 multilabel counter. Creatine kinase was determined from the rate of increase in A340 following addition of 100 μl of CK assay reagent (Sigma catalog no. 47-10) to the remainder of the cell lysate.
For IC50 and EC50 calculations, mean IL-6, luciferase or CK values versus log10 of the compound concentration were fitted to a four parameter logistic equation. The IC50/EC50 value, ‘Hill slope,’ upper and lower limits of the curve were iteratively estimated.

melting point [°C]	IC50 (ER/IL-6; Homo sapiens, HAECT1) [nM]	EC50 (CK; Homo sapiens, HAECT1) [nM]	IC50 (ER/IL-6) [nM]	EC50 (CK) [nM]	Compound	Emax (ER/IL-6; Homo sapiens, HAECT1) [%]	Emax (CK; Homo sapiens) [%]	IL6 luc % Efficacy (ER/IL-6) [%]	CK % Efficacy (CK) [%]
184.9 to 185.5	389	–	–	–	COC[C@](C#N)(C(=O)NCC(C)(C)C)[C@H](c1ccccc1OC)c1cccc2ccccc12 (relative stereo) [Example 181, (2S*,3S*)-2-cyano-N-(2,2-dimethylpropyl)-2-(methoxymethyl)-3-(2-methoxyphenyl)-3-(1-naphthyl)propanamide]	104	2	–	–
–	–	–	157	–	COC[C@@](C#N)(C(=O)N1CCN(c2ncccn2)CC1)[C@@H](c1ccccc1OC)c1cccc2ccccc12 [Example 200, (RR,SS)-2-(methoxymethyl)-3-(2-methoxyphenyl)-3-(1-naphthyl)-2-[(4-pyrimidin-2-ylpiperazin-1-yl)carbonyl]propanenitrile]	–	–	162	13
–	–	–	87	–	COCC(C#N)(C(=O)N1CCN(C2CCCCC2)CC1)C(c1ccccc1OC)c1cccc2ccccc12 (stereo not drawn) [Example 209, (RR,SS)-3-(4-cyclohexylpiperazin-1-yl)-2-(methoxymethyl)-2-[(2-methoxyphenyl)(1-naphthyl)methyl]-3-oxopropanenitrile]	–	–	116	2
–	–	–	59	138	COCC(C#N)(C(=O)N1CCN(c2cnccn2)CC1)C(c1ccccc1OC)c1cccc2ccccc12 (stereo not drawn) [Example 212, (RR,SS)-2-(methoxymethyl)-3-(2-methoxyphenyl)-3-(1-naphthyl)-2-[(4-pyrazin-2-ylpiperazin-1-yl)carbonyl]propanenitrile]	–	–	113	22
–	–	–	5.6	64	COCC(C#N)(C(=O)N1CC=C(c2c[nH]c3ccccc23)CC1)C(c1ccccc1OC)c1cccc2ccccc12 (stereo not drawn) [Example 213, (RR,SS)-3-[4-(1H-indol-3-yl)-3,6-dihydropyridin-1(2H)-yl]-2-(methoxymethyl)-2-[(2-methoxyphenyl)(1-naphthyl)methyl]-3-oxopropanenitrile]	–	–	103	26
–	–	–	203	–	COc1ccccc1C(c1cccc2ccccc12)C(C#N)(COCc1ccccc1)C(=O)N1CCN(C2CCCCC2)CC1 (stereo not drawn) [Example 217, (RR,SS)-2-[(benzyloxy)methyl]-3-(4-cyclohexylpiperazin-1-yl)-2-[(2-methoxyphenyl) (1-naphthyl)methyl]-3-oxopropanenitrile]	–	–	12	−37
–	–	–	103	–	COc1ccccc1[C@@H](c1cccc2ccccc12)[C@@](C#N)(COCc1ccccc1)C(=O)N1CCN(c2ncccn2)CC1 [Example 218, (RR,SS)-2-[(benzyloxy)methyl]-3-(2-methoxyphenyl)-3-(1-naphthyl)-2-[(4-pyrimidin-2-ylpiperazin-1-yl)carbonyl]propanenitrile]	–	–	101	−12
–	–	–	344	–	COc1ccccc1[C@@H](c1cccc2ccccc12)[C@@](C#N)(COCc1ccccc1)C(=O)N1CCN(c2cnccn2)CC1 [Example 220, (RR,SS)-2-[(benzyloxy)methyl]-3-(2-methoxyphenyl)-3-(1-naphthyl)-2-[(4-pyrazin-2-ylpiperazin-1-yl)carbonyl]propanenitrile]	–	–	128	6
–	–	–	304	33	COC[C@@](C#N)(C(=O)N1CCN(C2CCCCC2)CC1)[C@@H](c1ccccc1OC)c1cccc2ccccc12 [Example 222, (2R,3R)-3-(4-cyclohexylpiperazin-1-yl)-2-(methoxymethyl)-2-[(2-methoxyphenyl)(1-naphthyl)methyl]-3-oxopropanenitrile]	–	–	170	–
–	–	–	1600	–	COC[C@](C#N)(C(=O)N1CC=C(c2c[nH]c3ccccc23)CC1)[C@H](c1ccccc1OC)c1cccc2ccccc12 [Example 225]	–	–	83	−12
–	–	–	220	138	COC[C@@](C#N)(C(=O)N1CC=C(c2c[nH]c3ccccc23)CC1)[C@@H](c1ccccc1OC)c1cccc2ccccc12 [Example 226]	–	–	115	18

Continued, compound first:

Compound	melting point [°C]	IC50 (ER/IL-6; Homo sapiens, HAECT1) [nM]	EC50 (CK; Homo sapiens, HAECT1) [nM]	IC50 (ER/IL-6) [nM]	EC50 (CK) [nM]	Emax (ER/IL-6; Homo sapiens, HAECT1) [%]	Emax (CK; Homo sapiens) [%]	IL6 luc % Efficacy (ER/IL-6) [%]	CK % Efficacy (CK) [%]
COC[C@](C#N)(C(=O)OC)[C@H](c1ccccc1OC)c1cccc2ccccc12 (relative stereo) [Example 141, Methyl (2S*,3S*)-2-cyano-2-(methoxymethyl)-3-(2-methoxyphenyl)-3-(1-naphthyl)propanoate]	148.3 to 151	–	–	–	–	123	39	–	–
COC(=O)[C@@](C#N)(Cc1ccccn1)[C@H](c1ccccc1OC)c1cccc2ccccc12 (relative stereo) [Example 143, Methyl (2S*,3S*)-2-cyano-3-(2-methoxyphenyl)-3-(1-naphthyl)-2-(pyridin-2-ylmethyl)propanoate]	194.4 to 196.3	39	74	–	–	91	38	–	–
COC(=O)[C@@](C#N)(Cc1ccc(Br)cc1)[C@H](c1ccccc1OC)c1cccc2ccccc12 (relative stereo) [Example 152, Methyl (2S*,3S*)-2-(4-bromobenzyl)-2-cyano-3-(2-methoxyphenyl)-3-(1-naphthyl)propanoate]	218 to 219	19	85	–	–	130	14	–	–
COC(=O)[C@@](C#N)(Cc1ccc(-c2cccc(C(F)(F)F)c2)cc1)[C@H](c1ccccc1OC)c1cccc2ccccc12 (relative stereo) [Example 153, Methyl (2S*,3S*)-2-cyano-3-(2-methoxyphenyl)-3-(1-naphthyl)-2-{[3′-(trifluoromethyl)-1,1′-biphenyl-4-yl]methyl}propanoate]	202 to 204.1	149	–	–	–	150	15	–	–
COC(=O)[C@@](C#N)(CCN(C)C)[C@H](c1ccccc1OC)c1cccc2ccccc12 (relative stereo) [Example 157, Methyl (2S*)-2-cyano-4-(dimethylamino)-2-[(S*)-(2-methoxyphenyl)(1-naphthyl)methyl]butanoate]	142 to 144.5	23	–	–	–	110	-100	–	–
COc1ccccc1C(c1cccc2ccccc12)C(C#N)(Cc1cccnc1)C(=O)N1CCN(c2ncccn2)CC1 (stereo not drawn) [Example 174, (RR,SS)-3-(2-methoxyphenyl)-3-(1-naphthyl)-2-(pyridin-3-ylmethyl)-2-[(4-pyrimidin-2-ylpiperazin-1-yl)carbonyl]propanenitrile]	–	–	–	1820	–	–	–	49	34
COc1ccccc1[C@@H](c1cccc2ccccc12)[C@@](C#N)(Cc1cccnc1)C(=O)N1CCN(c2cnccn2)CC1 [Example 177, (RR,SS)-3-(2-methoxyphenyl)-3-(1-naphthyl)-2-[(4-pyrazin-2-ylpiperazin-1-yl)carbonyl]-2-(pyridin-3-ylmethyl)propanenitrile]	–	–	–	1150	–	–	–	91	−32
COc1ccccc1C(c1cccc2ccccc12)C(C#N)(Cc1cccnc1)C(=O)N1CC=C(c2c[nH]c3ccccc23)CC1 (stereo not drawn) [Example 178, (RR,SS)-3-[4-(1H-indol-3-yl)-3,6-dihydropyridin-1(2H)-yl]-2-[(2-methoxyphenyl)(1-naphthyl)methyl]-3-oxo-2-(pyridin-3-ylmethyl)propanenitrile]	–	–	–	94	–	–	–	137	−100
COc1ccccc1[C@H](c1cccc2ccccc12)[C@@](C)(C#N)C(=O)N1CCC2(CC1)OCCO2 [Example 188]	–	–	–	63	–	–	–	107	39
